The term Ki denotes a measure of affinity in units of concentration, obtained from inhibition or displacement. Read a low Ki as tighter binding.

Results on 30 compounds are retold here after patent US12208088B2 (Genentech, Inc., priority 2018, dated 2025).

The experiment concerns the target HPK1 (Homo sapiens (Human), UniProt Q92918). Put plainly: HPK1 Lantha binding assay ("Lanth"). Conditions: binding assays; Morrison Ki fit. In short, it runs like this:
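TR-FRET binding competition using 2 nM HPK1, 2 nM Eu-anti-GST antibody and 15 nM Tracer222 at 23 °C. Compound was incubated 1 h with enzyme and antibody, then 1 h after tracer addition, with an 11-point 5-fold dilution series. Ki obtained from a Morrison fit that corrects for tracer concentration and Kd.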

HPK1, sequence (Q92918 1-346 limits assumed): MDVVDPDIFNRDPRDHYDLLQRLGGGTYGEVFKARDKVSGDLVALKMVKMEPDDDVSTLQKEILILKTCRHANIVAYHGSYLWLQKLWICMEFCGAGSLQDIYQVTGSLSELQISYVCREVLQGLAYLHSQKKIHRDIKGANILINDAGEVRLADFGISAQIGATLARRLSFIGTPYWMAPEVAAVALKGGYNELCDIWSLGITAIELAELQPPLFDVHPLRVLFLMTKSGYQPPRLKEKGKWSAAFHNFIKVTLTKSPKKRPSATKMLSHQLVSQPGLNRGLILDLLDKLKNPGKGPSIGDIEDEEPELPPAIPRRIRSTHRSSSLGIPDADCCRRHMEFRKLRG

In turn, `COc1c(-c2ccc(N)c(C(=O)N(C)C)c2F)cnc2c1[C@]1(CC[C@@H](O)CC1)CN2` [Compound 113a, 6-Amino-2-fluoro-3-((1r,4r)-4-hydroxy-4′-methoxy-1′,2′-dihydrospiro[cyclohexane-1,3′-pyrrolo[2,3-b]pyridin]-5′-yl)-N,N-dimethylbenzamide] returned a Ki of 39 nM.

As for `COc1c(-c2ccc(N)c(C(=O)N(C)C)c2F)cnc2c1[C@]1(CC[C@H](O)CC1)CN2` [Compound 113b, 6-Amino-2-fluoro-3-((1s,4s)-4-hydroxy-4′-methoxy-1′,2′-dihydrospiro[cyclohexane-1,3′-pyrrolo[2,3-b]pyridin]-5′-yl)-N,N-dimethylbenzamide], the Ki was found to be 15.1 nM. Take `CN(C)C(=O)c1c(N)ccc(-c2cnc3c(c2Cl)[C@]2(CCNC(=O)C2)CN3)c1F` [Compound 122a, (R)-6-Amino-3-(4′-chloro-2-oxo-1′,2′-dihydrospiro[piperidine-4,3′-pyrrolo[2,3-b]pyridin]-5′-yl)-2-fluoro-N,N-dimethylbenzamide]: the Ki was 304 nM. For `CN(C)C(=O)c1c(N)ccc(-c2cnc3c(c2Cl)[C@@]2(CCNC(=O)C2)CN3)c1F` [Compound 122b, (S)-6-Amino-3-(4′-chloro-2-oxo-1′,2′-dihydrospiro[piperidine-4,3′-pyrrolo[2,3-b]pyridin]-5′-yl)-2-fluoro-N,N-dimethylbenzamide] the value was 26 nM; for `CN(C)C(=O)c1c(N)ccc(-c2cnc3c(c2Cl)C2(CCC(CC#N)C2)CN3)c1F` (stereo not drawn) [Compound 130, 6-Amino-3-(4′-chloro-3-(cyanomethyl)-1′,2′-dihydrospiro[cyclopentane-1,3′-pyrrolo[2,3-b]pyridin]-5′-yl)-2-fluoro-N,N-dimethylbenzamide], 4 nM.

Compound `CN(Cc1cnn(C)c1)C(=O)c1cccc(-c2cnc3c(c2)C2(CC2)CN3)c1F` [Compound 136, 3-(1′,2′-dihydrospiro[cyclopropane-1,3′-pyrrolo[2,3-b]pyridin]-5′-yl)-2-fluoro-N-methyl-N-((1-methyl-1H-pyrazol-4-yl)methyl)benzamide] gave a Ki of 15.9 nM. Regarding `CCN(C(=O)c1cccc(-c2cnc3c(c2)C2(CC2)CN3)c1F)C1CCC1` [Compound 137, N-cyclobutyl-3-(1′,2′-dihydrospiro[cyclopropane-1,3′-pyrrolo[2,3-b]pyridin]-5′-yl)-N-ethyl-2-fluorobenzamide], the Ki was 34.1 nM. Consider `CN(CCC#N)C(=O)c1cccc(-c2cnc3c(c2)C2(CC2)CN3)c1F` [Compound 138, N-(2-cyanoethyl)-3-(1,2′-dihydrospiro[cyclopropane-1,3′-pyrrolo[2,3-b]pyridin]-5′-yl)-2-fluoro-N-methylbenzamide], for which the inhibition constant Ki was found to be 38.6 nM. As for `CC(C)C1CN(C(=O)c2cccc(-c3cnc4c(c3)C3(CC3)CN4)c2F)C1` [Compound 139, (3-(1′,2′-dihydrospiro[cyclopropane-1,3′-pyrrolo[2,3-b]pyridin]-5′-yl)-2-fluorophenyl)(3-isopropylazetidin-1-yl)methanone], the figure is 120 nM. `CN(C(=O)c1cccc(-c2cnc3c(c2)C2(CC2)CN3)c1F)c1cnn(C)c1` [Compound 141, 3-(1′,2′-dihydrospiro[cyclopropane-1,3′-pyrrolo[2,3-b]pyridin]-5′-yl)-2-fluoro-N-methyl-N-(1-methyl-1H-pyrazol-4-yl)benzamide] yielded a Ki of 126 nM. For `CC1CN(C(=O)c2cccc(-c3cnc4c(c3)C3(CC3)CN4)c2F)C1` [Compound 142, (3-(1′,2′-dihydrospiro[cyclopropane-1,3′-pyrrolo[2,3-b]pyridin]-5′-yl)-2-fluorophenyl)(3-methylazetidin-1-yl)methanone] the value was 116 nM; for `CN(C)C(=O)c1c(N)ccc(-c2cnc3c(c2Cl)[C@]2(CC[C@@H](O)CC2)CN3)c1F` [Compound 144a, 6-Amino-3-((1r,4r)-4′-chloro-4-hydroxy-1′,2′-dihydrospiro[cyclohexane-1,3′-pyrrolo[2,3-b]pyridin]-5′-yl)-2-fluoro-N,N-dimethylbenzamide], 39.6 nM. With `CN(C)C(=O)c1c(N)ccc(-c2cnc3c(c2Cl)[C@]2(CC[C@H](O)CC2)CN3)c1F` [Compound 144b, 6-Amino-3-((1s,4s)-4′-chloro-4-hydroxy-1′,2′-dihydrospiro[cyclohexane-1,3′-pyrrolo[2,3-b]pyridin]-5′-yl)-2-fluoro-N,N-dimethylbenzamide], the inhibitory constant (Ki) is 9.98 nM. `CN(C)C(=O)c1c(N)ccc(-c2cnc3c(c2Cl)C2(CCC(c4cccnc4)C2)CN3)c1F` (stereo not drawn) [Compound 145, 6-Amino-3-(4′-chloro-3-(pyridin-3-yl)-1′,2′-dihydrospiro[cyclopentane-1,3′-pyrrolo[2,3-b]pyridin]-5′-yl)-2-fluoro-N,N-dimethylbenzamide] came in with a Ki of 9.37 nM. `CN(C)C(=O)c1c(N)ccc(-c2cnc3c(c2Cl)[C@]2(CC[C@@H](c4cccnc4)C2)CN3)c1F` [Compound 145a, 6-Amino-3-((1R,3R)-4′-chloro-3-(pyridin-3-yl)-1′,2′-dihydrospiro[cyclopentane-1,3′-pyrrolo[2,3-b]pyridin]-5′-yl)-2-fluoro-N,N-dimethylbenzamide]: the inhibition constant (Ki) was 9.94 nM. For `CN(C)C(=O)c1c(N)ccc(-c2cnc3c(c2Cl)[C@]2(CC[C@H](c4cccnc4)C2)CN3)c1F` [Compound 145c, 6-Amino-3-((1R,3S)-4′-chloro-3-(pyridin-3-yl)-1′,2′-dihydrospiro[cyclopentane-1,3′-pyrrolo[2,3-b]pyridin]-5′-yl)-2-fluoro-N,N-dimethylbenzamide] the value was 10.4 nM; for `CN(C)C(=O)c1c(N)ccc(-c2cnc3c(c2Cl)[C@@]2(CC[C@@H](c4cccnc4)C2)CN3)c1F` [Compound 145d, 6-Amino-3-((1S,3R)-4′-chloro-3-(pyridin-3-yl)-1′,2′-dihydrospiro[cyclopentane-1,3′-pyrrolo[2,3-b]pyridin]-5′-yl)-2-fluoro-N,N-dimethylbenzamide], 19.9 nM; for `O=C(c1cccc(-c2cnc3c(c2)C2(CC2)CN3)c1F)N1CCC12COC2` [Compound 147, (3-(1′,2′-dihydrospiro[cyclopropane-1,3′-pyrrolo[2,3-b]pyridin]-5′-yl)-2-fluorophenyl)(6-oxa-1-azaspiro[3.3]heptan-1-yl)methanone], 61.3 nM. As for `Cc1cnn([C@H]2CC[C@]3(CC2)CNc2ncc(-c4ccc(N)c(C(=O)N(C)C)c4F)c(Cl)c23)c1` [Compound 148a, 6-Amino-3-((1s,4s)-4′-chloro-4-(4-methyl-1H-pyrazol-1-yl)-1′,2′-dihydrospiro[cyclohexane-1,3′-pyrrolo[2,3-b]pyridin]-5′-yl)-2-fluoro-N,N-dimethylbenzamide], the affinity corresponds to a Ki of 2.21 nM. `CN(C)C(=O)c1cccc(-c2cnc3c(c2)C2(CC2)CN3)c1F` [Compound 149, 3-(1′,2′-dihydrospiro[cyclopropane-1,3′-pyrrolo[2,3-b]pyridin]-5′-yl)-2-fluoro-N,N-dimethylbenzamide] yielded a Ki of 33.5 nM. For `N#C[C@H]1CCCN1C(=O)c1cccc(-c2cnc3c(c2)C2(CC2)CN3)c1F` [Compound 154a, (R)-1-(3-(1′,2′-dihydrospiro[cyclopropane-1,3′-pyrrolo[2,3-b]pyridin]-5′-yl)-2-fluorobenzoyl)pyrrolidine-2-carbonitrile] the value was 14.2 nM.

Regarding `Cc1ccnn1[C@H]1CC[C@@]2(CNc3ncc(-c4ccc(N)c(C(=O)N(C)C)c4F)c(Cl)c32)C1` [Compound 160a, 6-Amino-3-((1R,3S)-4′-chloro-3-(5-methyl-1H-pyrazol-1-yl)-1′,2′-dihydrospiro[cyclopentane-1,3′-pyrrolo[2,3-b]pyridin]-5′-yl)-2-fluoro-N,N-dimethylbenzamide], the affinity, expressed as Ki, was 56.5 nM. `CN(Cc1cnn(C)c1)C(=O)c1c(N)ccc(-c2cnc3c(c2Cl)C2(CC2)CN3)c1F` [Compound 166, 6-Amino-3-(4′-chloro-1′,2′-dihydrospiro[cyclopropane-1,3′-pyrrolo[2,3-b]pyridin]-5′-yl)-2-fluoro-N-methyl-N-((1-methyl-1H-pyrazol-4-yl)methyl)benzamide] registered a Ki of 4.39 nM. Compound `CN(C)C(=O)c1c(N)ccc(-c2cnc3c(c2Cl)[C@]2(CC[C@H](n4nccc4C(F)(F)F)C2)CN3)c1F` [Compound 169a, 6-Amino-3-((1R,3S)-4′-chloro-3-(5-(trifluoromethyl)-1H-pyrazol-1-yl)-1′,2′-dihydrospiro[cyclopentane-1,3′-pyrrolo[2,3-b]pyridin]-5′-yl)-2-fluoro-N,N-dimethylbenzamide] registered a Ki of 54 nM.

Compound `O=C(c1cccc(-c2cnc3c(c2)C2(CC2)CN3)c1F)N1CCc2ccccc21` [Compound 172, (3-(1′,2′-dihydrospiro[cyclopropane-1,3′-pyrrolo[2,3-b]pyridin]-5′-yl)-2-fluorophenyl)(indolin-1-yl)methanone] had an inhibition constant (Ki) of 319 nM. For the compound `O=C(c1cccc(-c2cnc3c(c2)C2(CC2)CN3)c1F)N1CCc2ccncc21` [Compound 176, (2,3-dihydro-1H-pyrrolo[2,3-c]pyridin-1-yl)(3-(1′,2′-dihydrospiro[cyclopropane-1,3′-pyrrolo[2,3-b]pyridin]-5′-yl)-2-fluorophenyl)methanone], the affinity, expressed as Ki, was 127 nM.

As for `OCc1ccc(-c2cnc3c(c2Cl)C2(CC=CC2)CN3)cc1` [Compound 181, (4-(4′-Chloro-1′,2′-dihydrospiro[cyclopentane-1,3′-pyrrolo[2,3-b]pyridin]-3-en-5′-yl)phenyl)methanol], the affinity corresponds to a Ki of 198 nM.

Turning to `CC(C)(O)c1ccc(-c2cnc3c(c2Cl)C2(CC=CC2)CN3)cc1` [Compound 182, 2-(4-(4′-Chloro-1′,2′-dihydrospiro[cyclopentane-1,3′-pyrrolo[2,3-b]pyridin]-3-en-5′-yl)phenyl)propan-2-ol], the Ki amounted to 829 nM. In the case of `CS(=O)(=O)c1cccc(-c2cnc3c(c2Cl)C2(CC=CC2)CN3)c1` [Compound 183], the affinity corresponds to a Ki of 30.3 nM.

Consider `CCS(=O)(=O)c1cccc(-c2cnc3c(c2Cl)C2(CC=CC2)CN3)c1` [Compound 184, 4′-Chloro-5′-(3-(ethylsulfonyl)phenyl)-1′,2′-dihydrospiro[cyclopentane-1,3′-pyrrolo[2,3-b]pyridin]-3-ene], for which the affinity, expressed as Ki, was 50.3 nM.
